The values that follow come from US20190175690A1, “COMPOSITIONS AND METHODS FOR CARDIAC REPAIR” (CHILDREN'S MEDICAL CENTER CORPORATION, priority 2016, published 2019).

Data set [1] deals with TEAD1-YAP transcriptional activity. In words: 8xGTIIC-Luci luciferase reporter assay in 293T cells with DOX-induced VGLL4. It counts as cell-based. As to the method:
(§1) FIG. 7A is an immunoblot showing VGLL4 overexpression decreased TEAD1 protein level. Different doses of TEAD1 plasmids (indicated in μg) were co-transfected with 1.6 μg VGLL4-GFP plasmid. Cells were collected for western blot 24 hours after transfection. FIGS. 7B-7C show the generation and validation of TEAD1-Dendra2 construct. Tead1-Dendra2 plasmid was transfected into 293T cells. Western blot confirmed expression of TEAD1-Dendra2 fusion protein (FIG. 7B). TEAD1-Dendra2 merge fusion protein was green before illumination with 405 nm light. […] Cells were analyzed at the indicated time points. […] FIG. 7E is a graph showing the quantification of TEAD1-Dendra2 protein levels in FIG. 7D. *P<0.05. n=3. […] Relative red fluorescence intensity (RFI) was monitored for 20 minutes by taking one image per minute. n=6. […] Twenty-four (24) hours after transfection, cells were treated with Dox for the indicated number of hours, when cell extracts were analyzed for Firefly and Renilla luciferase activity. […]
The data indicates an additional mechanism, in which VGLL4 binding to TEAD1 promotes its degradation and thereby reduces the amount available to interact with YAP. To test additional mechanisms, the TEAD1 luciferase reporter 8xGTIIC-Luci (Dupont et al., 2011) was used as a read out of TEAD1-YAP transcriptional activity. […]
In general terms: In a reporter assay the amount or activity of a reporter protein is the signal.

Data set [2] concerns VGLL4-mediated TEAD1 degradation. Briefly: VGLL4-mediated TEAD1 degradation in co-transfected 293T cells (immunoblot). It counts as cell-based. The following applies: 293T cells co-transfected with TEAD1 and VGLL4, inhibitors for 6 hours. As to the method:
HA-VGLL4 was cloned downstream of TetO promoter. pEF1α::rtTA was used to express rtTA. The expression of HA-VGLL4 will be activated in the presence of both Dox and rtTA. […] 293T cells were co-transfected with pEF1α::rtTA and pTetO::HA-Vgll4. Twenty-four (24) hours after transfection, cells were treated with […] Dox for different hours. Immunoblotting was carried out to detect the expression of HA-VGLL4. […] Mouse Tead1 specific primers were used to measure relative Tead1-Dendra2 mRNA level by qRT-PCR. FIG. 8D depicts an immunoblot showing TEAD1 degradation is dependent on cysteine proteases and is independent of the proteasome. 293T cells were first co-transfected with TEAD1^fb and Vgll4-GFP plasmids. 1 day after transfection, cells were treated with indicated inhibitors for 6 hours. Dimethyl sulfoxide (DMSO, 0.1%) was used as control vehicle. β-tubulin was used as loading control.
Major pathways for protein degradation can include the proteasome and cysteine, serine, and threonine peptidases. To determine if these candidate pathways are involved in VGLL4-mediated TEAD1 degradation, the effect of MG132 (a universal proteasome inhibitor (Lee et al., 1998)), leupeptin (an inhibitor of serine and threonine peptidases (Umezawa, 1976)) and E64 (an inhibitor specific to cysteine proteases (Barrett et al., 1982)) on VGLL4-mediated TEAD1 degradation was studied.

Data set [3] has as its system high salt diet induced heart failure. The note with it: Cheng et al., 2008; cited from earlier work.
Another data set has as its system TEAD1-Dendra2. In words: pulse-labeled TEAD1-Dendra2 live cell imaging in 293T cells. In kind it is cell-based. The note with it: photoconverted TEAD1-Dendra2, Dox-induced VGLL4. As to the method:
as §1
DOX-induced VGLL4 expression was combined with live cell imaging of TEAD1-Dendra2 to specifically probe the effect of VGLL4 on TEAD1 stability. […] In the absence of VGLL4, TEAD1-Dendra2 protein fluorescence intensity dropped by 10% during the first 10 minutes, and then became relatively stable. […]

The test system of a further data set is myocardial infarction. The note with it: Dong et al., 2007; cited from earlier work.
Data set [4] deals with His-TEAD1[211-427] (recombinant murine TEAD1 residues 211-427 with polyhistidine tag, from E. coli) (mouse) (UniProt P30051). Briefly: photonic crystal nanobeam sensor, His-TEAD1[211-427] immobilized, curve fitted to the Langmuir equation.
The conditions of data set [5]: clinical testing, Chen et al., 2013; cited from earlier work.
The target of data set [6] is TEAD1-Dendra2 fusion protein (mouse) (UniProt P30051).
Data set [7] shares this target. This is another data set of the same source.

pKd: −log10 of the molar value.

`CC(C)C[C@H](NC(=O)[C@H]1O[C@@H]1C(=O)O)C(=O)NCCCCN=C(N)N` (relative stereo) [E64, L-trans-Epoxysuccinyl-leucylamido(4-guanidino)butane]: in data set [1], the “reduction of TEAD1 transcriptional activity caused by VGLL4 induction” value is “did not completely abrogate”. Further, the luciferase reporter activity entry in [1] (8 hours after DOX treatment, P<0.05) is “significantly increased reporter activity”. In [2], the “VGLL4-mediated reduction of TEAD1 steady-state levels” value is on record as “reduced VGLL4-mediated reduction of TEAD1 steady-state levels”. In [3], the “high salt diet induced heart failure” value is “attenuated high salt diet induced heart failure”. In addition, the “destabilizing effect of VGLL4 on TEAD1-Dendra2” value in the data set on TEAD1-Dendra2 was “reduced the destabilizing effect of VGLL4 on TEAD1-Dendra2”. The “beneficial effect in myocardial infarction model” value with myocardial infarction is reported as “did not show a beneficial effect”.
`CC(=O)N[C@@H](CC(C)C)C(=O)N[C@@H](CC(C)C)C(=O)N[C@H](C=O)CCCNC(=N)N` [leupeptin]: the “VGLL4-mediated reduction of TEAD1 steady-state levels” value in data set [2] was “reduced VGLL4-mediated reduction of TEAD1 steady-state levels”.
“synthetic non-acetylated VGLL4 TDU domain peptide with V5 epitope (from UniProt Q14135-4)”: the pKd in data set [4] is 8.51.
`CCOC(=O)[C@H]1O[C@@H]1C(=O)N[C@@H](CC(C)C)C(=O)NCCC(C)C` [E64d]: the safety profile result in data set [5] is “good safety profile”.
As for “HA-VGLL4 (doxycycline-inducible, pTetO::HA-VGLL4)”, the red fluorescence intensity of photoconverted TEAD1-Dendra2 (time lapse imaging) in data set [6] worked out at 18%. The same compound displayed a red fluorescence intensity of photoconverted Dendra2 (time lapse imaging) with Dendra2 of 5%. For the same compound, in data set [7], the steady-state TEAD1-Dendra2 protein level after Dox (immunoblot) came out at 50%.

A word on the pKd: it is the negative decadic logarithm of the Kd, by convention in mol/L.
